# Assay results reported in patent US20250302832A1, “PYRAZINE DERIVATIVES AND USES THEREOF” (FOGHORN THERAPEUTICS INC., priority 2022, published 2025).
# How the values were obtained:
# HiBit-BRM fusion protein = target: T1, HiBit-BRM fusion protein (Homo sapiens, UniProt P51531); experiment: HiBiT-BRM cell-based degradation assay (Nano-Glo HiBiT lytic detection, 24 h); details: HeLa cell line expressing HiBiT-BRM; for DC50: read-out: BRM HiBit Degradation IC50
# T1 construct: expressed in transfected cells
# T1 sequence (P51531 whole entry, the tested form may be a part): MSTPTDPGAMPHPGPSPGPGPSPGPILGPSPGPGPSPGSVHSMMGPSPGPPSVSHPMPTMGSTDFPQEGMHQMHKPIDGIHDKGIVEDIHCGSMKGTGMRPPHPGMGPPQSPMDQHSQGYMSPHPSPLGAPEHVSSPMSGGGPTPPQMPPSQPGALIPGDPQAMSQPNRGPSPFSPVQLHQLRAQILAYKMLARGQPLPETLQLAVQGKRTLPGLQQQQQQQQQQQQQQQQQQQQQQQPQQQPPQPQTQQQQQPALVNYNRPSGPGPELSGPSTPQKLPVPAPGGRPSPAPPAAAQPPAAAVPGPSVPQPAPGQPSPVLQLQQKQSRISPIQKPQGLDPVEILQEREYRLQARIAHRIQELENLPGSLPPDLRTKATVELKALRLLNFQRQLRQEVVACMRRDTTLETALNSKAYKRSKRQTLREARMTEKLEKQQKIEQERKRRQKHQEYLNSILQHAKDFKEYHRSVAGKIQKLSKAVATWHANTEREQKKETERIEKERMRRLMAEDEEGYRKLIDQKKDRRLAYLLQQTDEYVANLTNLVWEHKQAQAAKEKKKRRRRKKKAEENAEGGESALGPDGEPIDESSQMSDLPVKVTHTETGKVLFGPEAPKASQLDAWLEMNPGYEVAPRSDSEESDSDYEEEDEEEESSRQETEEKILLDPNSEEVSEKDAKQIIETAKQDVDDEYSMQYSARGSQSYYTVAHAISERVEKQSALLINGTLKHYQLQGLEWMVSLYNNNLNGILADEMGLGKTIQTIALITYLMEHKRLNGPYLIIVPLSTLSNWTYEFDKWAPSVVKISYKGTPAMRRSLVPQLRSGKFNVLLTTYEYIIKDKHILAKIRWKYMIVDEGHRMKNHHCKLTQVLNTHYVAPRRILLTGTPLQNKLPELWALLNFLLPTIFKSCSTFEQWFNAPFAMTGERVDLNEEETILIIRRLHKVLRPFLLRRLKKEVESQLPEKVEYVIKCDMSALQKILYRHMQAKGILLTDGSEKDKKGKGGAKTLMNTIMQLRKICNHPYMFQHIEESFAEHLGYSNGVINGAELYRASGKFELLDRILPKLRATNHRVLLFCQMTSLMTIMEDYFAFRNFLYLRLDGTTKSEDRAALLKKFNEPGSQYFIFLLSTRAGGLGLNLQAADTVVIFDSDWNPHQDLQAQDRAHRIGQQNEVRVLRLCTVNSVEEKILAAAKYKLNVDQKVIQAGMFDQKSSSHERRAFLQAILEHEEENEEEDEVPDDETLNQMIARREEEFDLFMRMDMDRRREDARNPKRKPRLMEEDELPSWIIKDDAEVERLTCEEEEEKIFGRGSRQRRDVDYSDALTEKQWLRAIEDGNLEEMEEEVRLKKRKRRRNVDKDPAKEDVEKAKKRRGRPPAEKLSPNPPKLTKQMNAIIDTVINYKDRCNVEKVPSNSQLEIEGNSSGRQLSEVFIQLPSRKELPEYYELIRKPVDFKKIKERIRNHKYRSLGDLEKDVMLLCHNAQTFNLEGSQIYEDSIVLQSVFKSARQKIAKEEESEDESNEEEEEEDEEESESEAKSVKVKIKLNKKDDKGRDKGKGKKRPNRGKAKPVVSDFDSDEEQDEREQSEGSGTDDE
# In short: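 Stable HeLa HiBiT-BRM cells treated 24 h with compounds (10-point 3-fold dilutions, 30 μM final top dose, duplicate). HiBiT levels read by Nano-Glo lytic luminescence; % degradation normalised to DMSO (high control) and 2 μM reference BRM/BRG1 degrader (low control).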
# [1] = target: T2, HiBit-BRG1 fusion protein (Homo sapiens, UniProt P51532); experiment: HiBiT-BRG1 cell-based degradation assay (Nano-Glo HiBiT lytic detection, 24 h); details: HeLa cell line expressing HiBit-BRG1 and LgBit; for Dmax: read-out: BRG1 HiBit Degradation Maximum (%)
# T2 construct: expressed in transfected cells
# T2 sequence (P51532 whole entry, the tested form may be a part): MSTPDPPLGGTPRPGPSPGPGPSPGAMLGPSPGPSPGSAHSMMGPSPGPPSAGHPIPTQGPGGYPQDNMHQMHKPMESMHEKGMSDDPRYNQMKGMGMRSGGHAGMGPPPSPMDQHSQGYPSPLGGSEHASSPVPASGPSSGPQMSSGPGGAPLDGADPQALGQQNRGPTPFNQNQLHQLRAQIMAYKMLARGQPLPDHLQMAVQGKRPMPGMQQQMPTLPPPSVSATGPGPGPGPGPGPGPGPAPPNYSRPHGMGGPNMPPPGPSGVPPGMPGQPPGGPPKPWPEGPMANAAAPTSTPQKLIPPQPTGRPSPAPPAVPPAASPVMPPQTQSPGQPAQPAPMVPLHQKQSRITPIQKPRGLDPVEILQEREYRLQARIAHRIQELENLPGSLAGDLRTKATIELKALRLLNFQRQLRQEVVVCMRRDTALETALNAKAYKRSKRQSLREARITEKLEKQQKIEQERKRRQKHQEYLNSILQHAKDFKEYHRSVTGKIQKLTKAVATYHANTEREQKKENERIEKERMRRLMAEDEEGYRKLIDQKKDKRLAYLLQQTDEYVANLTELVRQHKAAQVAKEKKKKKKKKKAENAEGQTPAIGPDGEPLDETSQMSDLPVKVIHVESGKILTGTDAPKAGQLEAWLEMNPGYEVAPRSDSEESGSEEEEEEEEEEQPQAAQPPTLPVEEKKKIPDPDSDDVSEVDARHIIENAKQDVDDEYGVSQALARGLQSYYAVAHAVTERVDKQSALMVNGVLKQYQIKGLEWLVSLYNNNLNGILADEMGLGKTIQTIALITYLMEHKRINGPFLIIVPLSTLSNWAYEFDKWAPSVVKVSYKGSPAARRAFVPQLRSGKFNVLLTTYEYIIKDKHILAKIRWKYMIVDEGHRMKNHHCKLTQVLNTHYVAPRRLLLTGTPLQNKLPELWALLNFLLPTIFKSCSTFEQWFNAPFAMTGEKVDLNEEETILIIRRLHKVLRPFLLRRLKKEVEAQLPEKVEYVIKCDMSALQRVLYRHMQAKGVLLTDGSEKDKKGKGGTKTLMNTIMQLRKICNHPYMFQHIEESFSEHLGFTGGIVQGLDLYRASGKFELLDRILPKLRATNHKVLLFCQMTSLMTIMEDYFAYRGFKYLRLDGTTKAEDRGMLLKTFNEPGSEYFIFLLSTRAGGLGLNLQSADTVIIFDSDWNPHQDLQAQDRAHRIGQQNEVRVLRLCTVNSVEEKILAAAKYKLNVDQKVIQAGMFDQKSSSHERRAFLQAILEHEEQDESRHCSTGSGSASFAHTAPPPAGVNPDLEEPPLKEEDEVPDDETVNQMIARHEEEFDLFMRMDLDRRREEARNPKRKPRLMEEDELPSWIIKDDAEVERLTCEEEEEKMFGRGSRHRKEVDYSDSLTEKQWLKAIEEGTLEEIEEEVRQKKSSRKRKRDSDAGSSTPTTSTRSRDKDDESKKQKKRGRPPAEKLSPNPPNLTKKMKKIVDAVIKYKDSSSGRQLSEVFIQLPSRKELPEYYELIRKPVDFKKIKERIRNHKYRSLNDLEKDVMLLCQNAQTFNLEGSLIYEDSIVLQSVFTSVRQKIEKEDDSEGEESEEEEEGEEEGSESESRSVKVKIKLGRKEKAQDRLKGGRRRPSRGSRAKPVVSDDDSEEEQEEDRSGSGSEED
# In short: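 HeLa cells stably expressing HiBiT-BRG1 and LgBiT, 5000 per well, compound-treated 24 h, equilibrated 15 min at room temperature, then lysed with LgBiT-containing Nano-Glo HiBiT lytic reagent and luminescence read. % degradation normalised between DMSO (high control) and 2 μM reference BRM/BRG1 degrader (low control).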
DC50 (HiBit-BRM fusion protein),Dmax [1],DC50 ([1]; read-out: BRMG1 HiBit Degradation IC50),Compound,BRM HiBit Degradation Maximum (%) (HiBit-BRM fusion protein)
< 10 nM,< 50%,–,"Cc1ncsc1-c1ccc([C@H](C)NC(=O)[C@@H]2C[C@@H](O)CN2C(=O)[C@@H](c2cc(-c3cnc(N4CC[C@@H](c5cc6nnc(-c7cc(F)cc(Cl)c7O)cc6n5C5CC5)C4)nc3)no2)C(C)C)cc1 [Compound 70, (2S,4R)-1-((R)-2-(3-(2-((R)-3-(3-(3-chloro-5-fluoro-2-hydroxyphenyl)-5-cyclopropyl-5H-pyrrolo[3,2-c]pyridazin-6-yl)pyrrolidin-1-yl)pyrimidin-5-yl)isoxazol-5-yl)-3-methylbutanoyl)-4-hydroxy-N-((S)-1-(4-(4-methylthiazol-5-yl)phenyl)ethyl)pyrrolidine-2-carboxamide]",A (“A” indicates maximum degradation ≥75%)
> 10 nM,< 50%,–,"Cc1cc(-c2cc([C@H](C(=O)N3C[C@H](O)C[C@H]3C(=O)N[C@@H](C)c3ccc(-c4scnc4C)cc3)C(C)C)on2)cnc1N1CC[C@@H](c2cc3nnc(-c4ccccc4O)cc3n2C2CC2)C1 [Compound 107, (2S,4R)-1-((R)-2-(3-(6-((R)-3-(5-cyclopropyl-3-(2-hydroxyphenyl)-5H-pyrrolo[3,2-c]pyridazin-6-yl)pyrrolidin-1-yl)-5-methylpyridin-3-yl)isoxazol-5-yl)-3-methylbutanoyl)-4-hydroxy-N-((S)-1-(4-(4-methylthiazol-5-yl)phenyl)ethyl)pyrrolidine-2-carboxamide]",A (“A” indicates maximum degradation ≥75%)
< 10 nM,> 50%,> 10 nM,"Cc1ncsc1-c1ccc([C@H](C)NC(=O)[C@@H]2C[C@@H](O)CN2C(=O)[C@@H](c2cc(N3CCC4(CC3)CC(c3cc5nnc(-c6ccccc6O)cc5n3C)C4)no2)C(C)C)cc1 [Compound 113, (2S,4R)-4-hydroxy-1-((R)-2-(3-(2-(3-(2-hydroxyphenyl)-5-methyl-5H-pyrrolo[3,2-c]pyridazin-6-yl)-7-azaspiro[3.5]nonan-7-yl)isoxazol-5-yl)-3-methylbutanoyl)-N-((S)-1-(4-(4-methylthiazol-5-yl)phenyl)ethyl)pyrrolidine-2-carboxamide]",A (“A” indicates maximum degradation ≥75%)

# The remaining lines, values behind:
Compound,DC50 (HiBit-BRM fusion protein),Dmax [1],DC50 ([1]; read-out: BRMG1 HiBit Degradation IC50),BRM HiBit Degradation Maximum (%) (HiBit-BRM fusion protein)
"CC(C)C(C(=O)N1C[C@H](O)C[C@H]1C(=O)NCC1CC1)c1cc(N2CC3(CC(c4cc5nnc(-c6ccccc6O)cc5n4C4CCC4)C3)C2)no1 (stereo partly drawn) [Compound 55, (2S,4R)-1-(2-(3-(6-(5-cyclobutyl-3-(2-hydroxyphenyl)-5H-pyrrolo[3,2-c]pyridazin-6-yl)-2-azaspiro[3.3]heptan-2-yl)isoxazol-5-yl)-3-methylbutanoyl)-N-(cyclopropylmethyl)-4-hydroxypyrrolidine-2-carboxamide]",> 10 nM,< 50%,–,A (“A” indicates maximum degradation ≥75%)
"Cc1ncsc1-c1ccc([C@H](C)NC(=O)[C@@H]2C[C@@H](O)CN2C(=O)[C@H](c2cc(-c3cnc(N4CC[C@H](c5cc6nnc(-c7ccccc7O)cc6n5C5CC5)C4)nc3)no2)C(C)C)cc1 [Compound 35, (2S,4R)-1-((S)-2-(3-(2-((S)-3-(5-cyclopropyl-3-(2-hydroxyphenyl)-5H-pyrrolo[3,2-c]pyridazin-6-yl)pyrrolidin-1-yl)pyrimidin-5-yl)isoxazol-5-yl)-3-methylbutanoyl)-4-hydroxy-N—((S)-1-(4-(4-methylthiazol-5-yl)phenyl)ethyl)pyrrolidine-2-carboxamide]",> 100 nM,< 50%,–,A (“A” indicates maximum degradation ≥75%)
